Columns and labels:
Conditions in all cases: exposure time: 72 h
E13 [1] = patient-derived glioblastoma stem cells of classical subtype; experiment: surviving fraction (nuclei count normalised to DMSO); higher = more cells surviving (less toxic)
E21 [2] = patient-derived glioblastoma stem cells of mesenchymal subtype; experiment: as above
E28 [3] = patient-derived glioblastoma stem cells of classical subtype; experiment: as above
E34 [4] = patient-derived glioblastoma stem cells of proneural subtype; experiment: as above
E57 [5] = patient-derived glioblastoma stem cells of mesenchymal subtype; experiment: as above
FT3469 [6] = normal neural stem cell line; experiment: as above
E13 [7] = experiment: phenotypic distance (Euclidean, principal components) from DMSO controls (arbitrary units); higher = stronger morphological change
E21 [8] = experiment: as above
E28 [9] = experiment: as above
E34 [10] = experiment: as above
E57 [11] = experiment: as above
FT3469 [12] = experiment: as above
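Wherever phenotypic distance (Euclidean, principal components) from DMSO controls is given: cell Painting imaging in 384-well plates, CellProfiler features reduced to at least 20 principal components, Euclidean distance versus same-plate DMSO vehicle wells (0.1% v/v), median over six images per well.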
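Wherever surviving fraction (nuclei count normalised to DMSO) is given: nuclei counted by high-content imaging of Hoechst-stained cells in laminin-coated 384-well plates, relative to 0.1% DMSO vehicle wells, with staurosporine as cell-death control.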

CC(C)C[C@H](NC(=O)[C@H](Cc1ccccc1)C[C@@H](O)[C@H](Cc1ccccc1)NC(=O)OC(C)(C)C)C(=O)N[C@@H](Cc1ccccc1)C(N)=O [L-685,458]
Conditions	phenotypic distance	surviving fraction
E13 [1], 4.1 nM	–	1.06
E13 [1], 4.11523 nM	–	1.16
E13 [1], 12.3 nM	–	1.04
E13 [1], 12.34567901 nM	–	1.1
E13 [1], 37 nM	–	1.01
E13 [1], 37.037 nM	–	0.999
E13 [1], 111.1 nM	–	1.18
E13 [1], 111.1111111 nM	–	1.01
E13 [1], 333.3 nM	–	1.02
E13 [1], 333.333 nM	–	1.09
E13 [1], 1000 nM	–	1.14
E13 [1], 3000 nM	–	1.01
E13 [7], 4.1 nM	0.562	–
E13 [7], 4.11523 nM	0.913	–
E13 [7], 12.3 nM	0.877	–
E13 [7], 12.34567901 nM	0.727	–
E13 [7], 37 nM	0.594	–
E13 [7], 37.037 nM	0.991	–
E13 [7], 111.1 nM	0.891	–
E13 [7], 111.1111111 nM	2.26	–
E13 [7], 333.3 nM	0.794	–
E13 [7], 333.333 nM	0.929	–
E13 [7], 1000 nM	1.66	–
E13 [7], 3000 nM	0.881	–
E21 [2], 4.1 nM	–	0.96
E21 [2], 4.11523 nM	–	0.891
E21 [2], 12.3 nM	–	0.969
E21 [2], 12.34567901 nM	–	0.958
E21 [2], 37 nM	–	0.95
E21 [2], 37.037 nM	–	0.941
E21 [2], 111.1 nM	–	1.03
E21 [2], 111.1111111 nM	–	1.03
E21 [2], 333.3 nM	–	0.861
E21 [2], 333.333 nM	–	1.04
E21 [2], 1000 nM	–	1.05
E21 [2], 3000 nM	–	0.948
E21 [8], 4.1 nM	0.782	–
E21 [8], 4.11523 nM	0.593	–
E21 [8], 12.3 nM	0.577	–
E21 [8], 12.34567901 nM	0.764	–
E21 [8], 37 nM	0.535	–
E21 [8], 37.037 nM	0.752	–
E21 [8], 111.1 nM	0.68	–
E21 [8], 111.1111111 nM	0.628	–
E21 [8], 333.3 nM	0.73	–
E21 [8], 333.333 nM	0.786	–
E21 [8], 1000 nM	0.724	–
E21 [8], 3000 nM	0.836	–
E28 [3], 4.1 nM	–	0.997
E28 [3], 4.11523 nM	–	1.1
E28 [3], 12.3 nM	–	1.15
E28 [3], 12.34567901 nM	–	0.885
E28 [3], 37 nM	–	0.825
E28 [3], 37.037 nM	–	1.02
E28 [3], 111.1 nM	–	1.11
E28 [3], 111.1111111 nM	–	0.813
E28 [3], 333.3 nM	–	0.795
E28 [3], 333.333 nM	–	1.02
E28 [3], 1000 nM	–	0.858
E28 [3], 3000 nM	–	0.834
E28 [9], 4.1 nM	0.474	–
E28 [9], 4.11523 nM	0.565	–
E28 [9], 12.3 nM	0.894	–
E28 [9], 12.34567901 nM	0.663	–
E28 [9], 37 nM	0.847	–
E28 [9], 37.037 nM	0.502	–
E28 [9], 111.1 nM	0.482	–
E28 [9], 111.1111111 nM	0.958	–
E28 [9], 333.3 nM	0.937	–
E28 [9], 333.333 nM	0.39	–
E28 [9], 1000 nM	0.79	–
E28 [9], 3000 nM	0.756	–
E34 [4], 4.1 nM	–	0.787
E34 [4], 4.11523 nM	–	0.957
E34 [4], 12.3 nM	–	1.02
E34 [4], 12.34567901 nM	–	0.895
E34 [4], 37 nM	–	0.964
E34 [4], 37.037 nM	–	1.09
E34 [4], 111.1 nM	–	0.946
E34 [4], 111.1111111 nM	–	0.976
E34 [4], 333.3 nM	–	0.746
E34 [4], 333.333 nM	–	1.15
E34 [4], 1000 nM	–	1
E34 [4], 3000 nM	–	0.924
E34 [10], 4.1 nM	1.11	–
E34 [10], 4.11523 nM	0.526	–
E34 [10], 12.3 nM	0.954	–
E34 [10], 12.34567901 nM	0.619	–
E34 [10], 37 nM	0.627	–
E34 [10], 37.037 nM	0.56	–
E34 [10], 111.1 nM	0.75	–
E34 [10], 111.1111111 nM	0.762	–
E34 [10], 333.3 nM	1.1	–
E34 [10], 333.333 nM	0.452	–
E34 [10], 1000 nM	0.948	–
E34 [10], 3000 nM	1.12	–
E57 [5], 4.1 nM	–	1.04
E57 [5], 4.11523 nM	–	0.963
E57 [5], 12.3 nM	–	0.967
E57 [5], 12.34567901 nM	–	0.988
E57 [5], 37 nM	–	0.958
E57 [5], 37.037 nM	–	0.998
E57 [5], 111.1 nM	–	1.01
E57 [5], 111.1111111 nM	–	1.03
E57 [5], 333.3 nM	–	1.08
E57 [5], 333.333 nM	–	0.989
E57 [5], 1000 nM	–	1.04
E57 [5], 3000 nM	–	1
E57 [11], 4.1 nM	0.808	–
E57 [11], 4.11523 nM	1.06	–
E57 [11], 12.3 nM	1.19	–
E57 [11], 12.34567901 nM	0.938	–
E57 [11], 37 nM	1.05	–
E57 [11], 37.037 nM	0.959	–
E57 [11], 111.1 nM	1.22	–
E57 [11], 111.1111111 nM	0.783	–
E57 [11], 333.3 nM	0.893	–
E57 [11], 333.333 nM	1.03	–
E57 [11], 1000 nM	1.1	–
E57 [11], 3000 nM	1.07	–
FT3469 [6], 4.1 nM	–	0.944
FT3469 [6], 4.11523 nM	–	0.979
FT3469 [6], 12.3 nM	–	1.02
FT3469 [6], 12.34567901 nM	–	0.858
FT3469 [6], 37 nM	–	0.9
FT3469 [6], 37.037 nM	–	1.03
FT3469 [6], 111.1 nM	–	0.901
FT3469 [6], 111.1111111 nM	–	0.984
FT3469 [6], 333.3 nM	–	0.882
FT3469 [6], 333.333 nM	–	0.884
FT3469 [6], 1000 nM	–	0.867
FT3469 [6], 3000 nM	–	0.838
FT3469 [12], 4.1 nM	0.822	–
FT3469 [12], 4.11523 nM	0.544	–
FT3469 [12], 12.3 nM	0.633	–
FT3469 [12], 12.34567901 nM	0.898	–
FT3469 [12], 37 nM	0.582	–
FT3469 [12], 37.037 nM	0.598	–
FT3469 [12], 111.1 nM	1.41	–
FT3469 [12], 111.1111111 nM	0.791	–
FT3469 [12], 333.3 nM	0.871	–
FT3469 [12], 333.333 nM	0.681	–
FT3469 [12], 1000 nM	0.906	–
FT3469 [12], 3000 nM	1.06	–

Cc1cc(Nc2cc(CN3CCOCC3)c3nc(C)c(Cc4ccc(Cl)cc4F)n3n2)n[nH]1 [Gandotinib]
Conditions	phenotypic distance	surviving fraction
E13 [1], 4.1 nM	–	1.02
E13 [1], 12.3 nM	–	0.923
E13 [1], 37 nM	–	0.933
E13 [1], 111.1 nM	–	0.946
E13 [1], 333.3 nM	–	0.818
E13 [1], 1000 nM	–	0.791
E13 [1], 3000 nM	–	0.626
E13 [7], 4.1 nM	0.676	–
E13 [7], 12.3 nM	0.87	–
E13 [7], 37 nM	0.987	–
E13 [7], 111.1 nM	1.47	–
E13 [7], 333.3 nM	1.57	–
E13 [7], 1000 nM	1.9	–
E13 [7], 3000 nM	2.7	–
E21 [2], 4.1 nM	–	1.07
E21 [2], 12.3 nM	–	1.02
E21 [2], 37 nM	–	1.03
E21 [2], 111.1 nM	–	0.918
E21 [2], 333.3 nM	–	0.724
E21 [2], 1000 nM	–	0.505
E21 [2], 3000 nM	–	0.164
E21 [8], 4.1 nM	1.3	–
E21 [8], 12.3 nM	0.9953	–
E21 [8], 37 nM	1.34	–
E21 [8], 111.1 nM	1.92	–
E21 [8], 333.3 nM	2.89	–
E21 [8], 1000 nM	4.83	–
E21 [8], 3000 nM	9.25	–
E28 [3], 4.1 nM	–	1.03
E28 [3], 12.3 nM	–	0.979
E28 [3], 37 nM	–	1.06
E28 [3], 111.1 nM	–	1.02
E28 [3], 333.3 nM	–	0.865
E28 [3], 1000 nM	–	0.673
E28 [3], 3000 nM	–	0.335
E28 [9], 4.1 nM	0.402	–
E28 [9], 12.3 nM	0.536	–
E28 [9], 37 nM	0.979	–
E28 [9], 111.1 nM	1.01	–
E28 [9], 333.3 nM	1.15	–
E28 [9], 1000 nM	1.63	–
E28 [9], 3000 nM	3.72	–
E34 [4], 4.1 nM	–	0.94
E34 [4], 12.3 nM	–	0.77
E34 [4], 37 nM	–	0.6589
E34 [4], 111.1 nM	–	0.511
E34 [4], 333.3 nM	–	0.44
E34 [4], 1000 nM	–	0.4
E34 [4], 3000 nM	–	0.316
E34 [10], 4.1 nM	1.52	–
E34 [10], 12.3 nM	2.31	–
E34 [10], 37 nM	3.63	–
E34 [10], 111.1 nM	5.44	–
E34 [10], 333.3 nM	7.1	–
E34 [10], 1000 nM	7.41	–
E34 [10], 3000 nM	7.42	–
E57 [5], 4.1 nM	–	1.061
E57 [5], 12.3 nM	–	0.946
E57 [5], 37 nM	–	0.903
E57 [5], 111.1 nM	–	0.781
E57 [5], 333.3 nM	–	0.534
E57 [5], 1000 nM	–	0.42
E57 [5], 3000 nM	–	0.193
E57 [11], 4.1 nM	0.653	–
E57 [11], 12.3 nM	0.688	–
E57 [11], 37 nM	1.33	–
E57 [11], 111.1 nM	1.76	–
E57 [11], 333.3 nM	2.18	–
E57 [11], 1000 nM	2.93	–
E57 [11], 3000 nM	5.26	–
FT3469 [6], 4.1 nM	–	0.931
FT3469 [6], 12.3 nM	–	0.889
FT3469 [6], 37 nM	–	0.969
FT3469 [6], 111.1 nM	–	0.97
FT3469 [6], 333.3 nM	–	0.9328
FT3469 [6], 1000 nM	–	0.806
FT3469 [6], 3000 nM	–	0.584
FT3469 [12], 4.1 nM	0.44	–
FT3469 [12], 12.3 nM	0.627	–
FT3469 [12], 37 nM	0.479	–
FT3469 [12], 111.1 nM	1.67	–
FT3469 [12], 333.3 nM	0.785	–
FT3469 [12], 1000 nM	0.863	–
FT3469 [12], 3000 nM	2.05	–

— the supplement of paper PMC13207355
